Values after ≈ are worked out from the molar mass of the structure shown. Where two headings read alike, the source gives them in different places.
Legend:
[1] = system: Streptococcus pyogenes C-203; test: In-vivo acute mouse protection assay; parameters: species or system Streptococcus pyogenes; female Swiss albino mice; conditions: dosed 1 and 5 h post-infection, observed 7 days
Description: (§1) An acute mouse protection test was conducted on ten mice with each of three concentrations of selected compounds of the invention. Each concentration was a four-fold dilution of the previous concentration. The initial concentration will vary with the microorganism with which the mouse is challenged.
(§2) The acute mouse protection test was conducted on female, Swiss albino mice, 18-20 grams in weight. […] To check the potency of the inoculum, a titration of the indicated test organism was carried out in control animals. The titration determines the LD50 for a particular microorganism. The treatment groups of animals were dosed orally, by gavage, or subcutaneously with the test compounds at 1 and 5 hours post-infection and observed for 7 days. The ED50 were calculated using the mortality data collected.

[2] = system: Staphylococcus aureus CMX 553; test: In-vitro antimicrobial activity primary screen (agar dilution MIC); type: cell-based; conditions: Staphylococcus aureus, CMX553, 24 h, BHI agar, 20-24 h, read-out: MIC
Outline: (§3)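 Agar dilution in Brain Heart Infusion agar with twelve successive compound dilutions; plates inoculated with 1:100 diluted cultures by replicator and incubated 20-24 h at 35-37 °C. MIC is the lowest concentration giving no growth, slight haze or sparse isolated colonies versus compound-free control; erythromycin A plate run as reference.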

[3] = system: Staphylococcus aureus CMX 686B; test: as above; type: cell-based; conditions: CMX686B, BHI agar, 20-24 h, read-out: MIC
Outline: as §3

[4] = system: Staphylococcus aureus CMX 503A; test: as above; type: cell-based; conditions: Staphylococcus aureus, CMX503A, 24 h, BHI agar, 20-24 h, read-out: MIC
Outline: as §3

[5] = system: Streptococcus pneumoniae (ATCC 6303); test: In-vivo acute mouse protection assay; parameters: species or system Streptococcus pneumoniae; female Swiss albino mice; conditions: dosed 1 and 5 h post-infection, observed 7 days
Description: as §1, §2

[6] = system: Staphylococcus aureus (NCTC 10649); test: In-vivo acute mouse protection assay; parameters: species or system Staphylococcus aureus; female Swiss albino mice; conditions: Staphylococcus aureus, NCTC10649, sc, 168 h; subcutaneous; dosed 1 and 5 h post-infection, observed 7 days; read-out: ED50
Description: as §1, §2

[7] = system: Micrococcus luteus ATCC 4698; test: In-vitro antimicrobial activity primary screen (agar dilution MIC); type: cell-based; conditions: 20-24 h
Outline: (§4)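 Agar dilution in BHI agar with successive compound dilutions; inoculum 1:100 (1:10 for slow growers such as Streptococcus), applied with a Steers replicator. Incubated 35 37° C for 20-24 hours. MIC is the lowest concentration giving no growth, slight haze or sparse colonies versus the drug-free control.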

[8] = system: Micrococcus luteus ATCC 9341; test: as above; type: cell-based; conditions: 20-24 h
Outline: as §4

[9] = system: Enterobacter aerogenes ATCC 13048; test: as above; type: cell-based; conditions: Klebsiella aerogenes, Enterobacter aerogenes ATCC 13048, BHI agar, 20-24 h
Outline: as §4

[10] = system: Staphylococcus aureus 45 RAR2; test: as above; type: cell-based; conditions: Staphylococcus aureus, 45RAR2, 24 h, BHI agar, 20-24 h
Outline: as §4

[11] = system: Staphylococcus aureus A5177; test: as above; type: cell-based; conditions: Staphylococcus aureus A5177, BHI agar, 20-24 h
Outline: as §4

[12] = system: Providencia stuartii CMX 640; test: as above; type: cell-based
Outline: as §4

Staphylococcus aureus 45 = test: as above; type: cell-based; conditions: BHI agar, 20-24 h, read-out: MIC
Outline: as §4

[13] = system: Pseudomonas aeruginosa K799/WT; test: as above; type: cell-based; conditions: Pseudomonas aeruginosa K799/WT, BHI agar, 20-24 h
Outline: as §4

[14] = system: Streptococcus pyrogenes 2548 INDUC; test: as above; type: cell-based; conditions: BHI agar, 20-24 h, read-out: MIC
Outline: as §4

Acinetobacter SP CMX 669 = test: as above; type: cell-based
Outline: as §4

Escherichia coli DC-2 = test: as above; type: cell-based; conditions: DC2; Escherichia coli DC-2; BHI agar, 20-24 h; read-out: MIC
Outline: as §4

[15] = system: Pseudomonas aeruginosa BMH10; test: as above; type: cell-based; conditions: Pseudomonas aeruginosa, BMH10, 24 h, BHI agar, 20-24 h
Outline: as §4

[16] = system: Enterococcus faecium ATCC 8043; test: as above; type: cell-based
Outline: as §4

Escherichia coli JUHL = test: as above; type: cell-based
Outline: as §4

[17] = system: Staphylococcus aureus ATCC 6538P; test: as above; type: cell-based; conditions: Staphylococcus aureus, ATCC6538P, 24 h, BHI agar, 20-24 h
Outline: as §4

Pseudomonas cepacia 2961 = test: as above; type: cell-based; conditions: BHI agar, 20-24 h
Outline: as §4

[18] = system: Pseudomonas aeruginosa A5007; test: as above; type: cell-based
Outline: as §4

Escherichia coli SS = test: as above; type: cell-based; conditions: BHI agar, 20-24 h, read-out: MIC
Outline: as §4

[19] = system: Pseudomonas aeruginosa K799/61; test: as above; type: cell-based; conditions: Pseudomonas aeruginosa K799/61; BHI agar, 20-24 h; read-out: MIC
Outline: as §4

[20] = system: Streptococcus bovis A5169; test: as above; type: cell-based; conditions: Streptococcus equinus, BHI agar, 20-24 h
Outline: as §4

Escherichia coli H560 = test: as above; type: cell-based; conditions: Escherichia coli H560; BHI agar, 20-24 h; read-out: MIC
Outline: as §4

[21] = system: Staphylococcus epidermidis 3519; test: as above; type: cell-based; conditions: BHI agar, 20-24 h, read-out: MIC
Outline: as §4

[22] = system: Streptococcus pyrogenes EES61; test: as above; type: cell-based; conditions: BHI agar, 20-24 h, read-out: MIC
Outline: as §4

[23] = system: Streptococcus agalactiae CMX 508; test: as above; type: cell-based; conditions: CMX508, BHI agar, 20-24 h, read-out: MIC
Outline: as §4

[24] = system: Staphylococcus aureus 642A; test: as above; type: cell-based; conditions: BHI agar, 20-24 h, read-out: MIC
Outline: as §4

[25] = system: Klebsiella pneumoniae ATCC 8045; test: as above; type: cell-based; conditions: Klebsiella pneumoniae, ATCC8045, 24 h
Outline: as §4

[26] = system: Staphylococcus aureus NCTC 10649; test: as above; type: cell-based; conditions: NCTC10649, BHI agar, 20-24 h, read-out: MIC
Outline: as §4

CC[C@H]1OC(=O)[C@H](C)[C@@H](O[C@H]2C[C@@](C)(OC)[C@@H](N)[C@H](C)O2)[C@H](C)[C@@H](O[C@@H]2O[C@H](C)C[C@H](N(C)C)[C@H]2O)[C@](C)(O)C[C@@H](C)[C@@H]2O[C@@]1(C)[C@@H](O)[C@H]2C [Example 15, (4"S,9S,11S)-4"-Amino-9-deoxo-4",12-dideoxy-9,12-epoxyerythromycin A]
ED50 ([1]; C203, 168 h, oral): 47.9 mg/kg
ED50 ([1]; C203, sc, 168 h, subcutaneous): 5 mg/kg
MIC [2]: 0.2 µg/mL (≈ 0.279 µM)
MIC [3]: 0.39 µg/mL (≈ 0.544 µM)
MIC [4]: 0.39 µg/mL (≈ 0.544 µM)
ED50 ([5]; ATCC6303, 168 h, oral, read-out: ED50): 37.3 mg/kg
ED50 ([5]; ATCC6303, sc, 168 h, subcutaneous): 4 mg/kg
ED50 [6]: 30.1 mg/kg
MIC ([7]; ATCC4698, BHI agar, read-out: MIC): 0.05 µg/mL (≈ 0.0697 µM)
MIC ([8]; ATCC9341, BHI agar, read-out: MIC): 0.01 µg/mL (≈ 0.0139 µM)
MIC ([9]; ATCC13048, 24 h): 50 µg/mL (≈ 69.7 µM)
MIC [10]: 0.39 µg/mL (≈ 0.544 µM)
MIC ([11]; read-out: MIC): 1.56 µg/mL (≈ 2.18 µM)
MIC ([12]; CMX640, Providencia stuartii CMX 640, BHI agar, 20-24 h, read-out: MIC): > 100 µg/mL
MIC (Staphylococcus aureus 45): 0.39 µg/mL (≈ 0.544 µM)
MIC ([13]; read-out: MIC): 100 µg/mL (≈ 139 µM)
MIC [14]: 6.2 µg/mL (≈ 8.65 µM)
MIC (Acinetobacter SP CMX 669; SPCMX669, Acinetobacter SP CMX 669, BHI agar, 20-24 h, read-out: MIC): 6.2 µg/mL (≈ 8.65 µM)
MIC (Escherichia coli DC-2): 6.2 µg/mL (≈ 8.65 µM)
MIC [15]: 50 µg/mL (≈ 69.7 µM)
MIC ([16]; Enterococcus faecium, ATCC8043, 24 h): 0.1 µg/mL (≈ 0.139 µM)
MIC (Escherichia coli JUHL; Escherichia coli, 24 h): 12.5 µg/mL (≈ 17.4 µM)
MIC [17]: 0.39 µg/mL (≈ 0.544 µM)
MIC (Pseudomonas cepacia 2961; Burkholderia cepacia, read-out: MIC): > 100 µg/mL
MIC ([18]; Pseudomonas aeruginosa A5007, BHI agar, 20-24 h, read-out: MIC): > 100 µg/mL
MIC (Escherichia coli SS): 0.1 µg/mL (≈ 0.139 µM)
MIC [19]: 0.78 µg/mL (≈ 1.09 µM)
MIC ([20]; read-out: MIC): 0.01 µg/mL (≈ 0.0139 µM)
MIC (Escherichia coli H560): 3.1 µg/mL (≈ 4.32 µM)
MIC [21]: 0.2 µg/mL (≈ 0.279 µM)
MIC [22]: 0.02 µg/mL (≈ 0.0279 µM)
MIC [23]: 0.02 µg/mL (≈ 0.0279 µM)

CC[C@H]1OC(=O)[C@H](C)[C@@H](O[C@H]2C[C@@](C)(OC)[C@H](N)[C@H](C)O2)[C@H](C)[C@@H](O[C@@H]2O[C@H](C)C[C@H](N(C)C)[C@H]2O)[C@](C)(O)C[C@@H](C)[C@@H]2O[C@@]1(C)[C@@H](N)[C@H]2C [Example 20, (4"R,9S,11S)-4",11-Diamino-9-deoxo-4",11,12-trideoxy-9,12-epoxyerythromycinA]
MIC [2]: 0.2 µg/mL (≈ 0.279 µM)
MIC ([7]; Micrococcus luteus, ATCC4698, 24 h, BHI agar): 0.1 µg/mL (≈ 0.14 µM)
MIC ([8]; Micrococcus luteus, ATCC9341, 24 h, BHI agar): 0.02 µg/mL (≈ 0.0279 µM)
MIC ([9]; ATCC13048, read-out: MIC): 12.5 µg/mL (≈ 17.5 µM)
MIC [10]: 0.39 µg/mL (≈ 0.545 µM)
MIC ([11]; Staphylococcus aureus, A5177, 24 h): 0.78 µg/mL (≈ 1.09 µM)
MIC ([12]; Providencia stuartii, CMX640, 24 h): > 100 µg/mL
MIC (Staphylococcus aureus 45): 0.2 µg/mL (≈ 0.279 µM)
MIC ([13]; Pseudomonas aeruginosa, K799/WT, 24 h): 50 µg/mL (≈ 69.8 µM)
MIC [14]: 0.78 µg/mL (≈ 1.09 µM)
MIC [24]: 0.39 µg/mL (≈ 0.545 µM)
MIC (Acinetobacter SP CMX 669; Acinetobacter, SPCMX669, 24 h): 1.56 µg/mL (≈ 2.18 µM)
MIC [25]: 1.56 µg/mL (≈ 2.18 µM)
MIC (Escherichia coli DC-2): 3.1 µg/mL (≈ 4.33 µM)
MIC [15]: 25 µg/mL (≈ 34.9 µM)
MIC ([16]; ATCC8043, Enterococcus faecium ATCC 8043, BHI agar, 20-24 h, read-out: MIC): 0.05 µg/mL (≈ 0.0698 µM)
MIC (Escherichia coli JUHL; Escherichia coli JUHL, BHI agar, 20-24 h, read-out: MIC): 3.1 µg/mL (≈ 4.33 µM)
MIC [17]: 0.2 µg/mL (≈ 0.279 µM)
MIC (Pseudomonas cepacia 2961; Burkholderia cepacia, 2961, 24 h): > 100 µg/mL
MIC ([18]; Pseudomonas aeruginosa, A5007, 24 h): > 100 µg/mL
MIC (Escherichia coli SS): 0.05 µg/mL (≈ 0.0698 µM)
MIC [19]: 0.78 µg/mL (≈ 1.09 µM)
MIC [26]: 0.39 µg/mL (≈ 0.545 µM)
MIC ([20]; A5169, 24 h): ≤ 0.005 µg/mL
MIC (Escherichia coli H560): 1.56 µg/mL (≈ 2.18 µM)
MIC [21]: 0.2 µg/mL (≈ 0.279 µM)
MIC [22]: ≤ 0.005 µg/mL
MIC [23]: 0.02 µg/mL (≈ 0.0279 µM)

From patent US5288709A, “Erythromycin derivatives” (priority 1991, dated 1994)
